Where “and” joins values, the source holds several entries; their conditions need not be identical. Equal entries are not always repeated.
Columns and labels:
Test in all cases: radiometric filter-binding kinase assay, Kinase HotSpot
Conditions in all cases: compound 0.5 µM; ATP 10 µM
[1] = biological target: MARK3 (human) (UniProt P27448)
[2] = biological target: ACVR1B (human) (UniProt P36896)
[3] = biological target: NEK3 (human) (UniProt P51956)
[4] = biological target: MAP3K9 (human) (UniProt P80192)
[5] = biological target: MAP2K1 (human) (UniProt Q02750)
[6] = biological target: NTRK3 (human) (UniProt Q16288)
[7] = biological target: PBK (human) (UniProt Q96KB5)
Chain of PBK (human) (Q96KB5 whole entry, looked up): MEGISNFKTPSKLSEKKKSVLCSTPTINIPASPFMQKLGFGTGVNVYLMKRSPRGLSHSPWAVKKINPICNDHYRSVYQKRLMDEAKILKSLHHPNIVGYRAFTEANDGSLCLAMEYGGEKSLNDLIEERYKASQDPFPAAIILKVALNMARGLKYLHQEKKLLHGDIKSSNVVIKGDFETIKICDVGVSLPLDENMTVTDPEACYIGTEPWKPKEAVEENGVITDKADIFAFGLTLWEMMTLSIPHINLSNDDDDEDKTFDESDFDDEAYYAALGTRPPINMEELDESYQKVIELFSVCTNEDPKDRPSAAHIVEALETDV

[8] = biological target: ROS1 (human) (UniProt P08922)
[9] = biological target: DDR2 (human) (UniProt Q16832)
[10] = biological target: TAOK2 (human) (UniProt Q9UL54)
Chain of TAOK2 (human) (Q9UL54 whole entry, looked up): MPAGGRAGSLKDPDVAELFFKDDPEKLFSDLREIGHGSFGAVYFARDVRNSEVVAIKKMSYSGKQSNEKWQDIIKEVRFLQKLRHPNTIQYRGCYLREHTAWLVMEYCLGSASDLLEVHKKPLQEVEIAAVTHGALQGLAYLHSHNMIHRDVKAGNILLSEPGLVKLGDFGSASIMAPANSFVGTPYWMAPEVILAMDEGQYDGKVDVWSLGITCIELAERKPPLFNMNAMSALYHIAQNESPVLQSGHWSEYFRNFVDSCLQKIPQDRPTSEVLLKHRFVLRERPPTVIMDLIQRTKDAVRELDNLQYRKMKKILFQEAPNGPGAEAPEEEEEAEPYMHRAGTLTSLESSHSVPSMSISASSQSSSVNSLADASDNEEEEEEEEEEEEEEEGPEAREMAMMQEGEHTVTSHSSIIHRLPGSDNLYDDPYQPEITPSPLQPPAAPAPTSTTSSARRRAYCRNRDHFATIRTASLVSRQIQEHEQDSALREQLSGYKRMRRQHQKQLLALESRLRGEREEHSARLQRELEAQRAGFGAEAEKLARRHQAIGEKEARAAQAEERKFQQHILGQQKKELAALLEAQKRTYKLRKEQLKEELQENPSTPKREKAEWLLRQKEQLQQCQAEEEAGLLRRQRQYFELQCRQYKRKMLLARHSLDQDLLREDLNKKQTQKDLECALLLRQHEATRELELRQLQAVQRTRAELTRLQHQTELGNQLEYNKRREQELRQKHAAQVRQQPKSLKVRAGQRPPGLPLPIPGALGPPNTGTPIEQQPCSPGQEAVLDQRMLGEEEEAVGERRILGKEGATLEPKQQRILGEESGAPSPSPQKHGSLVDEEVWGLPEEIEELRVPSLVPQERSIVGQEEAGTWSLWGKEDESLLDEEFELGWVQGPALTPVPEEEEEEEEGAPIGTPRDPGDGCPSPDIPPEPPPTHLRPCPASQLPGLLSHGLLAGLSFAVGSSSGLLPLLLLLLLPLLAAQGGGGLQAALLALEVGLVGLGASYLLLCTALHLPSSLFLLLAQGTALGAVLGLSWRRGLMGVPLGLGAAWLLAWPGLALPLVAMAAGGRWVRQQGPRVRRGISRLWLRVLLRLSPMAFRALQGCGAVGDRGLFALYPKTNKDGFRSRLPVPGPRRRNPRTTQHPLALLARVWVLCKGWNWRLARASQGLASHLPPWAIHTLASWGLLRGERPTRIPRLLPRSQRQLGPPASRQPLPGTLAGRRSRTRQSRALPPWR

[11] = biological target: TEK (human) (UniProt Q02763)
[12] = biological target: IKBKB (human) (UniProt O14920)
[13] = biological target: MAP3K10 (human) (UniProt Q02779)
[14] = biological target: RET (human) (UniProt P07949)
Chain of RET (human) (P07949 whole entry, looked up): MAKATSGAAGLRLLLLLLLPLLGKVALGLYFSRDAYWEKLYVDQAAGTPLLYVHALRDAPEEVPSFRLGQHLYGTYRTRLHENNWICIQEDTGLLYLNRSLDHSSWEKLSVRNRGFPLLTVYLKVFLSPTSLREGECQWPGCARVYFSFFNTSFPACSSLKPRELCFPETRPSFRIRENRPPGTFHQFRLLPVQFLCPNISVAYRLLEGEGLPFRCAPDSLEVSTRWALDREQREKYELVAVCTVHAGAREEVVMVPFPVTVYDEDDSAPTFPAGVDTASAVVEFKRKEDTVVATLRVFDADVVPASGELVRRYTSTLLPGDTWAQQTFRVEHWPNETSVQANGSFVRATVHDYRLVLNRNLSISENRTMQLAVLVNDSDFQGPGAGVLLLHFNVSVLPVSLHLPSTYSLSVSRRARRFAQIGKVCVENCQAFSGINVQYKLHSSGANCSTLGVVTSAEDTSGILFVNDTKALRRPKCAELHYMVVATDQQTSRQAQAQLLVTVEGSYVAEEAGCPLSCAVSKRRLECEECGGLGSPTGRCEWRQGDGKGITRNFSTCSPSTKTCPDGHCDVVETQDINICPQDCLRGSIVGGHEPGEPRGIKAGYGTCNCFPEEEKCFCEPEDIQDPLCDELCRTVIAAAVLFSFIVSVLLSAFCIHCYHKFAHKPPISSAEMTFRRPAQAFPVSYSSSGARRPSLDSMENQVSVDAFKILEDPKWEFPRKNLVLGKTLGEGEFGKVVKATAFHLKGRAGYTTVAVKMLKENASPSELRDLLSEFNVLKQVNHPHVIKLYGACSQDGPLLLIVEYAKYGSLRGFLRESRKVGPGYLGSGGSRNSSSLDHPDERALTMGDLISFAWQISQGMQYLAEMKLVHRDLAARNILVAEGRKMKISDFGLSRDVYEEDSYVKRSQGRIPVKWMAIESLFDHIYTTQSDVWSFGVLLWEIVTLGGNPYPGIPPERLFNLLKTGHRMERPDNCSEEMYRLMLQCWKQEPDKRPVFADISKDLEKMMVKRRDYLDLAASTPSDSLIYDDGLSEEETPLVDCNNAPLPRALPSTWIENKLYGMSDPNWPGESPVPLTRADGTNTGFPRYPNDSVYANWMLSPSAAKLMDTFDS

[15] = biological target: PRKCG (human) (UniProt P05129)
[16] = biological target: ABL1 (human) (UniProt P00519)
[17] = biological target: CAMKK2 (human) (UniProt Q96RR4)
[18] = biological target: BMX (human) (UniProt P51813)
Chain of BMX (human) (P51813 whole entry, looked up): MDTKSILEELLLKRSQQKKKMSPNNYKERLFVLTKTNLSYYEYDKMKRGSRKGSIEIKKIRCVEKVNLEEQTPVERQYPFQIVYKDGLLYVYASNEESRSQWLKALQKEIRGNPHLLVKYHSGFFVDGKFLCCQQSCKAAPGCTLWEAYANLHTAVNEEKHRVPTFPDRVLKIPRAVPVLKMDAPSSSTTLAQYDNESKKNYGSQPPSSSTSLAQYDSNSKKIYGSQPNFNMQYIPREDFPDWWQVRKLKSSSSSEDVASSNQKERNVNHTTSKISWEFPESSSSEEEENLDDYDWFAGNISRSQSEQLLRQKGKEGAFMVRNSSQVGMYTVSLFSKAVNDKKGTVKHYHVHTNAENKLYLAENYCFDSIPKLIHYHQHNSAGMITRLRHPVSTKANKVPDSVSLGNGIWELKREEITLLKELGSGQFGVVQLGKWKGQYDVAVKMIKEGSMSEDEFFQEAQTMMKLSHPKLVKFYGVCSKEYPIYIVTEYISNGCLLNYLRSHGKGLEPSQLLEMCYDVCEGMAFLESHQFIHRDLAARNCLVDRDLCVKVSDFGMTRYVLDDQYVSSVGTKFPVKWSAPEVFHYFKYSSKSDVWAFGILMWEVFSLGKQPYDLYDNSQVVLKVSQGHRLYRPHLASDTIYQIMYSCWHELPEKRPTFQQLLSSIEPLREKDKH

[19] = biological target: RIPK2 (human) (UniProt O43353)
[20] = biological target: MAP3K8 (human) (UniProt P41279)
Chain of MAP3K8 (human) (P41279 whole entry, looked up): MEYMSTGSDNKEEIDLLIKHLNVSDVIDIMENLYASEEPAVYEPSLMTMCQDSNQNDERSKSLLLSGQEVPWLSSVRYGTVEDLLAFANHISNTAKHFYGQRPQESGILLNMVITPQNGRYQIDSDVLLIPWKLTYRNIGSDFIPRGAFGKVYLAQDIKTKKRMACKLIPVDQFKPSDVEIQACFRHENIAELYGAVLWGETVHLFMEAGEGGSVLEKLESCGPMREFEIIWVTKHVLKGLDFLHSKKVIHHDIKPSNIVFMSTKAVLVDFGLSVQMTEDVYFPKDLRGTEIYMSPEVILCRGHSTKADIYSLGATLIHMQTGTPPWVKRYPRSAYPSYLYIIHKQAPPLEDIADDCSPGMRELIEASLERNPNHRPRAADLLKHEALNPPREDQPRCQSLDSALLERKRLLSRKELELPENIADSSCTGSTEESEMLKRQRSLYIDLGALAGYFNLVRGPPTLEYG

[21] = biological target: CDK7 CCNH MNAT1 (human) (UniProt P50613+P51948+P51946)
[22] = biological target: DYRK3 (human) (UniProt O43781)
[23] = biological target: PNCK (human) (UniProt Q6P2M8)
[24] = biological target: MAP3K3 (human) (UniProt Q99759)
[25] = biological target: TNK2 (human) (UniProt Q07912)
[26] = biological target: CAMK1G (human) (UniProt Q96NX5)
[27] = biological target: ERBB4 (human) (UniProt Q15303)
[28] = biological target: RPS6KA4 KD2 (human) (UniProt O75676)
[29] = biological target: PLK2 (human) (UniProt Q9NYY3)
[30] = biological target: DYRK1B (human) (UniProt Q9Y463)
[31] = biological target: SRPK2 (human) (UniProt P78362)
[32] = biological target: EPHA1 (human) (UniProt P21709)
[33] = biological target: PRKD1 (human) (UniProt Q15139)
[34] = biological target: CAMK2G (human) (UniProt Q13555)
[35] = biological target: CSNK2A1 (human) (UniProt P68400)
[36] = biological target: GSG2 (human) (UniProt Q8TF76)
[37] = biological target: PDGFRA (human) (UniProt P16234)
[38] = biological target: TXK (human) (UniProt P42681)
[39] = biological target: ADRBK2 (human) (UniProt P35626)
[40] = biological target: DAPK3 (human) (UniProt O43293)
[41] = biological target: LYN (human) (UniProt P07948)
[42] = biological target: CSK (human) (UniProt P41240)

Chain of MARK3 (human) (P27448 whole entry, looked up): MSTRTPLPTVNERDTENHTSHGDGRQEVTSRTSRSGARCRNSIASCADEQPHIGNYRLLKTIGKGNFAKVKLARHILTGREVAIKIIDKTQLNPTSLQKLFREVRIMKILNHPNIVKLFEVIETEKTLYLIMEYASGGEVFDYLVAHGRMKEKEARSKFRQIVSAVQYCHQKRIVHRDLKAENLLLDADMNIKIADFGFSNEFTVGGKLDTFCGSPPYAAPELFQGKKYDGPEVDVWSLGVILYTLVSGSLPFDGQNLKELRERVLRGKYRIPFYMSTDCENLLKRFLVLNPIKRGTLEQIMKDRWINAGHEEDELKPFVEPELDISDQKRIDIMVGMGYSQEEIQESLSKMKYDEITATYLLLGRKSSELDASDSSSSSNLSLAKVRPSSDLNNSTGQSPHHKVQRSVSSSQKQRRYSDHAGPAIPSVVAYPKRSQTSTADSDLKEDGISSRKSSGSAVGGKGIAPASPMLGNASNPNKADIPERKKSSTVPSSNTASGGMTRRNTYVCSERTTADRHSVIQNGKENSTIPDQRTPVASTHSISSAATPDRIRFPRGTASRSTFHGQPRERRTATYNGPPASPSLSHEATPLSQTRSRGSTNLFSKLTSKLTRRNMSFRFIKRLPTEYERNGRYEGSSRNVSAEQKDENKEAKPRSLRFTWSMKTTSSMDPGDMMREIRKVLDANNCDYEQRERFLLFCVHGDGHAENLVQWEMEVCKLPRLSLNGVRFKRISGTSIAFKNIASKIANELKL
Chain of NEK3 (human) (P51956 whole entry, looked up): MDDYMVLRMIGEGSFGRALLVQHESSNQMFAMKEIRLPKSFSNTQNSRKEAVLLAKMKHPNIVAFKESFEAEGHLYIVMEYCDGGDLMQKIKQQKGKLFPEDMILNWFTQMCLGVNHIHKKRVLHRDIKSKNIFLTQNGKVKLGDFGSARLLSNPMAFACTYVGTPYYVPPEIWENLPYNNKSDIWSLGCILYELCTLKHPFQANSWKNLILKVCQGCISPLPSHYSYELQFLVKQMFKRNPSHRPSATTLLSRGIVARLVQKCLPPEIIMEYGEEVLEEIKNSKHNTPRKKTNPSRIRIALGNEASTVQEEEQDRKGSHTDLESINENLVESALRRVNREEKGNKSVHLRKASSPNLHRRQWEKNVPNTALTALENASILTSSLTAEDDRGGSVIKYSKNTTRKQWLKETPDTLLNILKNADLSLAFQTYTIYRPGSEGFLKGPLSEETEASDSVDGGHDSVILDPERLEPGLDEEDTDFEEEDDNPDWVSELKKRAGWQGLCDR

Structure (SMILES): Cn1c2ccccc2c2c3c(c4c5ccccc5n(CCC#N)c4c21)CNC3=O
- residual activity [1]: 13.9%
- residual activity [2]: 115%
- residual activity [3]: 133%
- residual activity [4]: 1.49%
- residual activity [5]: 90.2%
- residual activity [6]: 0.198%
- residual activity [7]: 84.2%
- residual activity [8]: 1.18%
- residual activity [9]: 73.3%
- residual activity [10]: 13.3%
- residual activity [11]: 104%
- residual activity [12]: 90.4%
- residual activity [13]: 25.8%
- residual activity [14]: 0.516%
- residual activity [15]: 72.1%
- residual activity [16]: 84.6%
- residual activity [17]: 3.88%
- residual activity [18]: 13.7%
- residual activity [19]: 55.1%
- residual activity [20]: 111%
- residual activity [21]: 84.6%
- residual activity [22]: 83.9%
- residual activity [23]: 103%
- residual activity [24]: 5.86%
- residual activity [25]: 2.78%
- residual activity [26]: 101%
- residual activity [27]: 100%
- residual activity [28]: 29.9%
- residual activity [29]: 105%
- residual activity [30]: 25.6%
- residual activity [31]: 95%
- residual activity [32]: 81.6%
- residual activity [33]: 17.3%
- residual activity [34]: 21.9%
- residual activity [35]: 73.1%
- residual activity [36]: 27.2%
- residual activity [37]: 83.5%
- residual activity [38]: 6.39%
- residual activity [39]: 106%
- residual activity [40]: 93.6%
- residual activity [41]: 90.3% and 94.4%
- residual activity [42]: 81%

Structure (SMILES): COc1ccc(Cl)cc1NC(=O)Nc1cc(C)nc2ccccc12
- residual activity [1]: 126%
- residual activity [2]: 97.4%
- residual activity [3]: 114%
- residual activity [4]: 98.6%
- residual activity [5]: 101%
- residual activity [6]: 102%
- residual activity [7]: 98.5%
- residual activity [8]: 92.5%
- residual activity [9]: 97.7%
- residual activity [10]: 98.2%
- residual activity [11]: 96.8%
- residual activity [12]: 94.3%
- residual activity [13]: 94.9%
- residual activity [14]: 102%
- residual activity [15]: 107%
- residual activity [16]: 99.5%
- residual activity [17]: 93.2%
- residual activity [18]: 101%
- residual activity [19]: 82.7%
- residual activity [20]: 99.5%
- residual activity [21]: 101%
- residual activity [22]: 106%
- residual activity [23]: 98.7%
- residual activity [24]: 111%
- residual activity [25]: 102%
- residual activity [26]: 102%
- residual activity [27]: 97.8%
- residual activity [28]: 94%
- residual activity [29]: 102%
- residual activity [30]: 99.7%
- residual activity [31]: 94.9%
- residual activity [32]: 88.6%
- residual activity [33]: 96.6%
- residual activity [34]: 91.6%
- residual activity [35]: 97.9%
- residual activity [36]: 95.7%
- residual activity [37]: 88.5%
- residual activity [38]: 98.9%
- residual activity [39]: 103%
- residual activity [40]: 100%
- residual activity [41]: 111% and 99.2%
- residual activity [42]: 99.9%

Structure (SMILES): CCCCc1c(-c2ccc(OC)cc2)[nH]c2nccnc12
- residual activity [1]: 91.2%
- residual activity [2]: 112%
- residual activity [3]: 99.1%
- residual activity [4]: 39.8%
- residual activity [5]: 88.7%
- residual activity [6]: 84.4%
- residual activity [7]: 80.6%
- residual activity [8]: 37.5%
- residual activity [9]: 94.3%
- residual activity [10]: 90.1%
- residual activity [11]: 96.3%
- residual activity [12]: 102%
- residual activity [13]: 82.7%
- residual activity [14]: 56.3%
- residual activity [15]: 94.4%
- residual activity [16]: 83.4%
- residual activity [17]: 79.1%
- residual activity [18]: 82.2%
- residual activity [19]: 71%
- residual activity [20]: 98.2%
- residual activity [21]: 92.6%
- residual activity [22]: 96.1%
- residual activity [23]: 120%
- residual activity [24]: 99.8%
- residual activity [25]: 51.2%
- residual activity [26]: 102%
- residual activity [27]: 109%
- residual activity [28]: 89.4%
- residual activity [29]: 94.9%
- residual activity [30]: 94.5%
- residual activity [31]: 105%
- residual activity [32]: 67.9%
- residual activity [33]: 92.9%
- residual activity [34]: 107%
- residual activity [35]: 97.8%
- residual activity [36]: 80%
- residual activity [37]: 90.3%
- residual activity [38]: 72.7%
- residual activity [39]: 95.6%
- residual activity [40]: 102%
- residual activity [41]: 108% and 85.5%
- residual activity [42]: 87%

Reference: the kinase profiling compilation of Christmann-Franck et al. (2016)
